Measured values from patent US20220089578A1, “COMPOUNDS AS GLP-1R AGONISTS” (Terns Pharmaceuticals, Inc., priority 2020, published 2022).

Target: human GLP-1R (Homo sapiens, UniProt P43220)
Experiment: GLP-1R Cell Assay 1: cAMP Hunter CHO-K1 GLP1R Gs cell line, HitHunter cAMP assay
Assay type: cell-based
Conditions: cAMP Hunter CHO-K1 GLP1R Gs cells, percent activity normalized to Exendin-4
Outline: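 Luminescent enzyme-fragment-complementation immunoassay quantified cellular cAMP after 30-60 min compound exposure at 37 °C in HBSS/10 mM HEPES. Data from duplicate runs were normalised to Exendin-4 and fitted nonlinearly for EC50.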

Sequence of human GLP-1R (P43220 24-463): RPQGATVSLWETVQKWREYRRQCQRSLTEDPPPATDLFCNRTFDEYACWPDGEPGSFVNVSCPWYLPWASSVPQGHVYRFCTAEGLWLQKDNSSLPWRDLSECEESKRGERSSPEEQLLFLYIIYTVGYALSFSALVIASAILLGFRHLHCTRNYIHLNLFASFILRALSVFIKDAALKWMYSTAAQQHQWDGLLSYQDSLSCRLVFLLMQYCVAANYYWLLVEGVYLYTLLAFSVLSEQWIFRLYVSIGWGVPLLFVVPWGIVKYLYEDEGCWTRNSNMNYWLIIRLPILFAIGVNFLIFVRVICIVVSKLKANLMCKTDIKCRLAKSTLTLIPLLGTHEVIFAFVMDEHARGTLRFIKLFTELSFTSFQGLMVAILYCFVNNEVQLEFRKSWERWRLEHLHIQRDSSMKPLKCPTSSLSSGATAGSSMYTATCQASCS

SMILES	EC50 (Table 2)	EC50 (Table 3)
N#Cc1cc(F)c2c(c1)CCN(c1cccc(C3CCN(Cc4nc5ccc(C(=O)O)cc5n4C[C@@H]4CCO4)CC3)n1)C2 [Compound 13, (S)-2-((4-(6-(6-cyano-8-fluoro-3,4-dihydroisoquinolin-2(1H)-yl)pyridin-2-yl)piperidin-1-yl)methyl)-1-(oxetan-2-ylmethyl)-1H-benzo[d]imidazole-6-carboxylic acid]	0.788 nM	–
O=C(O)c1ccc2nc(CN3CCN(c4ccc5c(n4)N(Cc4ccccc4)CCC5)CC3)n(C[C@@H]3CCO3)c2c1 [Compound 153, (S)-2-((4-(8-benzyl-5,6,7,8-tetrahydro-1,8-naphthyridin-2-yl)piperazin-1-yl)methyl)-1-(oxetan-2-ylmethyl)-1H-benzo[d]imidazole-6-carboxylic acid]	–	> 500 nM
CCn1cncc1Cn1c(CN2CCC(c3cccc(OCc4ccc(C#N)cc4F)n3)CC2)nc2ccc(C(=O)O)cc21 [Compound 142, 2-((4-(6-((4-cyano-2-fluorobenzyl)oxy)pyridin-2-yl)piperidin-1-yl)methyl)-1-((1-ethyl-1H-imidazol-5-yl)methyl)-1H-benzo[d]imidazole-6-carboxylic acid]	0.00833 nM	–
N#Cc1ccc(CCn2ccc(C3CCN(Cc4nc5ccc(C(=O)O)cc5n4C[C@@H]4CCO4)CC3)n2)c(F)c1 [Compound 145, (S)-2-((4-(1-(4-cyano-2-fluorophenethyl)-1H-pyrazol-3-yl)piperidin-1-yl)methyl)-1-(oxetan-2-ylmethyl)-1H-benzo[d]imidazole-6-carboxylic acid]	–	> 500 nM
CC1(COc2cccc(N3CCN(Cc4nc5ccc(C(=O)O)cc5n4C[C@@H]4CCO4)CC3)n2)CC(F)(F)C1 [Compound 34, (S)-2-((4-(6-((3,3-difluoro-1-methylcyclobutyl)methoxy)pyridin-2-yl)piperazin-1-yl)methyl)-1-(oxetan-2-ylmethyl)-1H-benzo[d]imidazole-6-carboxylic acid]	333 nM	–
O=C(O)c1ccc2nc(CN3CCN(c4cccc(OCc5nc6cnccc6s5)n4)CC3)n(C[C@@H]3CCO3)c2c1 [Compound 130, (S)-1-(oxetan-2-ylmethyl)-2-((4-(6-(thiazolo[4,5-c]pyridin-2-ylmethoxy)pyridin-2-yl)piperazin-1-yl)methyl)-1H-benzo[d]imidazole-6-carboxylic acid]	0.966 nM	–
CCn1ccnc1Cn1c(CN2CC[C@]3(c4cccc(N5CCc6cc(C#N)cc(F)c6C5)n4)C[C@@H]3C2)nc2ccc(C(=O)O)cc21 [Compound 163-P2, 2-(((1S,6R)-6-(6-(6-cyano-8-fluoro-3,4-dihydroisoquinolin-2(1H)-yl)pyridin-2-yl)-3-azabicyclo[4.1.0]heptan-3-yl)methyl)-1-((1-ethyl-1H-imidazol-2-yl)methyl)-1H-benzo[d]imidazole-6-carboxylic acid]	–	0.414 nM
Cn1cc(COc2cccc(N3CCN(Cc4nc5ccc(C(=O)O)cc5n4C[C@@H]4CCO4)CC3)n2)cn1 [Compound 86, (S)-2-((4-(6-((1-methyl-1H-pyrazol-4-yl)methoxy)pyridin-2-yl)piperazin-1-yl)methyl)-1-(oxetan-2-ylmethyl)-1H-benzo[d]imidazole-6-carboxylic acid]	75.3 nM	–
Cc1cc(OCc2ccccc2)nn1C1CCN(Cc2nc3ccc(C(=O)O)cc3n2C[C@@H]2CCO2)CC1 [Compound 21, (S)-2-((4-(3-(benzyloxy)-5-methyl-1H-pyrazol-1-yl)piperidin-1-yl)methyl)-1-(oxetan-2-ylmethyl)-1H-benzo[d]imidazole-6-carboxylic acid]	2770 nM	–
O=C(O)c1ccc2nc(CN3CCN(c4cccc(OC5CN(c6ccccc6)C5)n4)CC3)n(C[C@@H]3CCO3)c2c1 [Compound 39, (S)-1-(oxetan-2-ylmethyl)-2-((4-(6-((1-phenylazetidin-3-yl)oxy)pyridin-2-yl)piperazin-1-yl)methyl)-1H-benzo[d]imidazole-6-carboxylic acid]	420 nM	–
N#Cc1ccc2c(c1)CN(c1ccn(C3CCN(Cc4nc5ccc(C(=O)O)cc5n4C[C@@H]4CCO4)CC3)n1)CC2 [Compound 25, (S)-2-((4-(3-(7-cyano-3,4-dihydroisoquinolin-2(1H)-yl)-1H-pyrazol-1-yl)piperidin-1-yl)methyl)-1-(oxetan-2-ylmethyl)-1H-benzo[d]imidazole-6-carboxylic acid]	> 500 nM	–
N#Cc1ccc2c(c1)CCC[C@@H]2Oc1cccc(C2CCN(Cc3nc4ccc(C(=O)O)cc4n3C[C@@H]3CCO3)CC2)n1 (single isomer, unassigned) [Compound 146-P2]	–	7.02 nM
O=C(O)c1ccc2nc(CN3CCC(n4ccc(OCCc5ccccc5)n4)CC3)n(C[C@@H]3CCO3)c2c1 [Compound 99]	2070 nM	–
O=C(O)c1ccc2nc(CN3CCN(c4cccc5c4CCN(c4ccccc4)C5)CC3)n(C[C@@H]3CCO3)c2c1 [Compound 155, (S)-1-(oxetan-2-ylmethyl)-2-((4-(2-phenyl-1,2,3,4-tetrahydroisoquinolin-5-yl)piperazin-1-yl)methyl)-1H-benzo[d]imidazole-6-carboxylic acid]	–	> 500 nM
O=C(O)c1ccc2nc(CN3CCN(c4cccc(OCc5cccnc5)n4)CC3)n(C[C@@H]3CCO3)c2c1 [Compound 53, (S)-1-(oxetan-2-ylmethyl)-2-((4-(6-(pyridin-3-ylmethoxy)pyridin-2-yl)piperazin-1-yl)methyl)-1H-benzo[d]imidazole-6-carboxylic acid]	7.7 nM	–
O=C(O)c1ccc2nc(CN3CCN(c4nc(OCc5ccccc5)ns4)CC3)n(C[C@@H]3CCO3)c2c1 [Compound 32, (S)-2-((4-(3-(benzyloxy)-1,2,4-thiadiazol-5-yl)piperazin-1-yl)methyl)-1-(oxetan-2-ylmethyl)-1H-benzo[d]imidazole-6-carboxylic acid]	> 500 nM	–
O=C(O)c1ccc2nc(CN3CCN(c4cccc(OCc5nc6c(s5)CCCC6)n4)CC3)n(C[C@@H]3CCO3)c2c1 [Compound 131, (S)-1-(oxetan-2-ylmethyl)-2-((4-(6-((4,5,6,7-tetrahydrobenzo[d]thiazol-2-yl)methoxy)pyridin-2-yl)piperazin-1-yl)methyl)-1H-benzo[d]imidazole-6-carboxylic acid]	1.71 nM	–
N#Cc1ccc(Cn2cnc3ccc(N4CCN(Cc5nc6ccc(C(=O)O)cc6n5C[C@@H]5CCO5)CC4)nc32)c(F)c1 [Compound 100, (S)-2-((4-(3-(4-cyano-2-fluorobenzyl)-3H-imidazo[4,5-b]pyridin-5-yl)piperazin-1-yl)methyl)-1-(oxetan-2-ylmethyl)-1H-benzo[d]imidazole-6-carboxylic acid]	246 nM	–
N#Cc1ccc(COc2nn(C3CCN(Cc4nc5ccc(C(=O)O)cc5n4C[C@@H]4CCO4)CC3)cc2C#N)c(F)c1 [Compound 111, (S)-2-((4-(4-cyano-3-((4-cyano-2-fluorobenzyl)oxy)-1H-pyrazol-1-yl)piperidin-1-yl)methyl)-1-(oxetan-2-ylmethyl)-1H-benzo[d]imidazole-6-carboxylic acid]	36.8 nM	–
O=C(O)c1ccc2nc(CN3CCC(n4ccc(OCc5ccccc5)n4)CC3)n(C[C@@H]3CCO3)c2c1 [Compound 22, (S)-2-((4-(3-(benzyloxy)-1H-pyrazol-1-yl)piperidin-1-yl)methyl)-1-(oxetan-2-ylmethyl)-1H-benzo[d]imidazole-6-carboxylic acid]	3740 nM	–
O=C(O)c1ccc2nc(CN3CCN(c4ccc5c(n4)OC(c4ccccc4)CC5)CC3)n(C[C@@H]3CCO3)c2c1 (stereo partly drawn) [Compound 162, 1-(((S)-oxetan-2-yl)methyl)-2-((4-(2-phenyl-3,4-dihydro-2H-pyrano[2,3-b]pyridin-7-yl)piperazin-1-yl)methyl)-1H-benzo[d]imidazole-6-carboxylic acid]	–	> 500 nM
CN(Cc1ccc(C#N)cc1)c1cccc(N2CCN(Cc3nc4ccc(C(=O)O)cc4n3C[C@@H]3CCO3)CC2)n1 [Compound 63, (S)-2-((4-(6-((4-cyanobenzyl)(methyl)amino)pyridin-2-yl)piperazin-1-yl)methyl)-1-(oxetan-2-ylmethyl)-1H-benzo[d]imidazole-6-carboxylic acid]	54.5 nM	–
O=C(O)c1ccc2nc(CN3CCN(c4cccc(OCc5nc6ccc(Cl)cc6s5)n4)CC3)n(C[C@@H]3CCO3)c2c1 [Compound 113, (S)-2-((4-(6-((6-chlorobenzo[d]thiazol-2-yl)methoxy)pyridin-2-yl)piperazin-1-yl)methyl)-1-(oxetan-2-ylmethyl)-1H-benzo[d]imidazole-6-carboxylic acid]	0.176 nM	–
C[C@H]1c2ccc(C#N)cc2CCN1c1cccc(N2CCN(Cc3nc4ccc(C(=O)O)cc4n3C[C@@H]3CCO3)CC2)n1 [Compound 84]	102 nM	–
NC(=O)c1ccc2c(c1)CCN(c1cccc(N3CCN(Cc4nc5ccc(C(=O)O)cc5n4C[C@@H]4CCO4)CC3)n1)C2 [Compound 59, (S)-2-((4-(6-(6-carbamoyl-3,4-dihydroisoquinolin-2(1H)-yl)pyridin-2-yl)piperazin-1-yl)methyl)-1-(oxetan-2-ylmethyl)-1H-benzo[d]imidazole-6-carboxylic acid]	228 nM	–
O=C(O)c1ccc2nc(CN3CCN(c4nc(OCc5ccccc5)cc5ccccc45)CC3)n(C[C@@H]3CCO3)c2c1 [Compound 157, (S)-2-((4-(3-(benzyloxy)isoquinolin-1-yl)piperazin-1-yl)methyl)-1-(oxetan-2-ylmethyl)-1H-benzo[d]imidazole-6-carboxylic acid]	–	> 500 nM
O=C(O)c1ccc2nc(CN3CCN(c4cccc(NCc5ccccc5)n4)CC3)n(C[C@@H]3CCO3)c2c1 [Compound 55, (S)-2-((4-(6-(benzylamino)pyridin-2-yl)piperazin-1-yl)methyl)-1-(oxetan-2-ylmethyl)-1H-benzo[d]imidazole-6-carboxylic acid]	42.3 nM	–
O=C(O)c1ccc2nc(CN3CCN(c4cccc(OCc5ccccn5)n4)CC3)n(C[C@@H]3CCO3)c2c1 [Compound 40, (S)-1-(oxetan-2-ylmethyl)-2-((4-(6-(pyridin-2-ylmethoxy)pyridin-2-yl)piperazin-1-yl)methyl)-1H-benzo[d]imidazole-6-carboxylic acid]	3.28 nM	–
